# Experimental data published in US20100160351A1, “PHARMACEUTICAL COMPOSITIONS AND METHODS FOR TREATING HYPERURICEMIA AND RELATED DISORDERS” (NUON THERAPEUTICS, INC., priority 2008, published 2010).
# Values joined by “and” are separate entries in the source; they are usually repeats but may differ in a detail not shown here. Equal entries are not always repeated.
# Tests used:
# [1] = system: monosodium urate (MSU) crystal-induced air pouch inflammation; experiment: Air Pouch Model 3: MSU crystal air pouch, rodent model of gout; format: in vivo, male Sprague-Dawley rats; details: 30 min before MSU; for Average Exudate Volume, Mean / Average Plasma Extravasation, OD620 nm, Mean / Total WBC in Sample, Mean / WBC in exudate, Mean: 4 h after MSU
# Experimental: The objective of this study was to evaluate the anti-inflammatory potency of Tranilast. This evaluation was carried out in male Sprague-Dawley rats in a rodent model of gout. The animals were injected subcutaneously with 20 ml of sterile air, followed three days later by a supplemental injection with 20 ml of sterile air. Six days after the initial sterile air injection, the rats were injected intravenously with Evan's Blue and pretreated for thirty minutes with oral administration of 25 mg/kg, 50 mg/kg, 100 mg/kg, 200 mg/kg, or 300 mg/kg tranilast. After the pretreatment period, the rats were injected with 150 mg of monosodium urate (MSU) crystals (10 mg/ml) into the air pouch. Four hours later, the air pouch was injected with 5 ml heparinized saline and the entire contents of the air pouch removed, recording the total volume. The air pouch contents were evaluated for plasma extravasation and total white blood cell (WBC) count.
# (§1) On day 0 the rats were anesthetized in a biological cabinet, the nape of the neck was cleansed with 70% isopropanol followed by iodine tincture (VEDCO). Twenty ml sterile (0.22 μm, Millipore, Cat. SLGSV255F) air was injected subcutaneously using a 23 G×2 inch needle fixed to a 20 ml syringe. The rats were returned to routine housing. No adverse reactions were observed.
# as §1, with “day 3” for “day 0”, “μm, Fisher Scientific,” for “μm, Millipore,”, “Cat. 09-720-3)” for “Cat. SLGSV255F)”
# On day 6 the rats were weighed (Mettler, Model PE3000, SN: F69474) and injected intravenously injected with 2 ml/kg Evans Blue. The animals were dosed orally with 0.5 ml/kg, 1 ml/kg, 2 ml/kg, 4 ml/kg tranilast, or 6 ml/kg tranilast or 6 ml/kg vehicle.
# Thirty minutes after test material administration, the rats were anesthetized and six groups (2-7) were injected into the air pouch with 15 ml MSU using a 19 G×2 inch needle fitted to a 20 ml syringe. Group 1 was injected with 15 ml saline. The rats were returned to their cages, no adverse affects were observed.
# Four hours after MSU/saline injection, the rats were anesthetized and 5 ml 10 U/ml heparinized saline was injected into the air pouch. The air pouch was gently massaged, the contents immediately removed using a 14 G×1 inch needle fitted to a 6 ml syringe, and the exudate volume recorded. An aliquot of the exudate was transferred to heparin-treated microtainer tubes (Becton Dickinson, Cat. 365958) for white blood cell (WBC) counting. The remainder of the exudate was centrifuged (Hermle Labrotechnik, Model Z200A, SN: 44060036), the supernatants removed and evaluated at OD620nm (Spectronic Unicam, Model 4000 1/4, SN: 3SGD003006) for plasma extravasation.
# [2] = system: serum uric acid (sUA) levels; experiment: Study A3006GT: phase 2 crossover, sUA in healthy subjects with screening sUA of at least 7.1 mg/dL; tranilast, febuxostat, combination; format: in vivo, human
# Experimental: Study A3006GT was a phase 2, randomized, double-blind, 3-period, 3-treatment crossover trial. The primary objective was to compare the effects of three treatments on serum uric acid (sUA) levels in healthy subjects with a screening sUA level of at least 7.1 mg/dL. The three treatments were: 300 mg QD tranilast and 40 mg QD febuxostat (C); 300 mg QD tranilast alone (T); 40 mg QD febuxostat alone (F).
# The study was conducted in 23 subjects. […] With two exceptions, every subject provided data for all three treatments. Subject 1001 completed only the first two periods of the study (C and F). […] Therefore, the period 3 data for subject 1024 are excluded from the analyses presented here.
# Two endpoints were considered: change from baseline to day 7 in sUA; and percent change from baseline to day 7 in sUA. For each endpoint, an analysis of variance (ANOVA) model for a three-period crossover trial was used. The model included effects for sequence, subject within sequence, treatment, and period. The sequence effect was tested using the subject within sequence mean square as the error term. Two pairwise comparisons between treatments were tested: C−F and C−T. In addition, the two-sided 95% confidence interval for each of these differences was computed.
# For each subject for which results were available from all three treatments, the difference between the change for C and the sum of the changes for F and T was computed. Although the true magnitude of the difference between these two values is not known, a conservative null hypothesis is that this difference should be equally likely to be greater than or less than zero. The sign test and the Wilcoxon signed rank test were used to test this null hypothesis.
# Using the change for each subject as the dependent variable, an analysis of variance (ANOVA) model for a three-period crossover trial was fit. This model included effects for sequence, subject within sequence, treatment, and period. Using the least squares estimates of the mean changes for each treatment, along with the 3×3 covariance matrix of these three estimates, the mean and SD of the difference between C and F+T was estimated, as follows.
# [3] = end of 1-week treatment (day 7), C: 300 mg QD tranilast + 40 mg QD febuxostat, T: 300 mg QD, F: 40 mg QD
# [4] = individual subjects, per study period, end of the 1-week treatment period
smiles,measurement,setting,value
"COc1ccc(/C=C/C(=O)Nc2ccccc2C(=O)O)cc1OC [Tranilast, 2-[[3-(3,4-dimethoxyphenyl)-1-oxo-2-propenyl]amino]benzoic acid]","Average Exudate Volume, Mean",[1]; 25 mg/kg oral,6.9 mL
same,"Average Plasma Extravasation, OD620 nm, Mean",[1]; 25 mg/kg oral,1.181
same,"Total WBC in Sample, Mean",[1]; 25 mg/kg oral,204170000
same,"WBC in exudate, Mean",[1]; 25 mg/kg oral,31260000 cells/ml
same,"Average Exudate Volume, Mean",[1]; 50 mg/kg oral,4.8 mL
same,"Average Plasma Extravasation, OD620 nm, Mean",[1]; 50 mg/kg oral,1.071
same,"Total WBC in Sample, Mean",[1]; 50 mg/kg oral,96948000
same,"WBC in exudate, Mean",[1]; 50 mg/kg oral,18900000 cells/ml
same,"Average Exudate Volume, Mean",[1]; 100 mg/kg oral,6.4 mL
same,"Average Plasma Extravasation, OD620 nm, Mean",[1]; 100 mg/kg oral,1.276
same,"Total WBC in Sample, Mean",[1]; 100 mg/kg oral,145408000
same,"WBC in exudate, Mean",[1]; 100 mg/kg oral,27440000 cells/ml
same,"Average Exudate Volume, Mean",[1]; 200 mg/kg oral,6.2 mL
same,"Average Plasma Extravasation, OD620 nm, Mean",[1]; 200 mg/kg oral,1.033
same,"Total WBC in Sample, Mean",[1]; 200 mg/kg oral,71692000
same,"WBC in exudate, Mean",[1]; 200 mg/kg oral,12000000 cells/ml
same,"Average Exudate Volume, Mean",[1]; 300 mg/kg oral,5.6 mL
same,"Average Plasma Extravasation, OD620 nm, Mean",[1]; 300 mg/kg oral,0.611
same,"Total WBC in Sample, Mean",[1]; 300 mg/kg oral,29232000
same,"WBC in exudate, Mean",[1]; 300 mg/kg oral,5880000 cells/ml
same,inhibition of plasma extravasation,[1]; highest dose 300 mg/kg oral,65%
same,inhibition of white blood cell infiltration,[1]; highest dose 300 mg/kg oral,90%
same,"effect on MSU-induced parameters (plasma extravasation, leukocyte infiltration)",[1]; oral 25-300 mg/kg,dose-dependent inhibition
same,"sUA Change from Baseline, Max",[2]; [3],-0.90 mg/dL
same,"sUA Change from Baseline, Mean",[2]; [3],-1.60 mg/dL
same,"sUA Change from Baseline, Median",[2]; [3],-1.40 mg/dL
same,"sUA Change from Baseline, Min",[2]; [3],-3.50 mg/dL
same,"sUA Percent Change from Baseline, Max",[2]; [3],−9.47%
same,"sUA Percent Change from Baseline, Mean",[2]; [3],−21.20%
same,"sUA Percent Change from Baseline, Median",[2]; [3],−18.61%
same,"sUA Percent Change from Baseline, Min",[2]; [3],−47.95%
same,sUA Change from baseline,[2]; [4],−1.4 mg/dL (2×) and −1.1 mg/dL (3×) and −2.1 mg/dL and −2.2 mg/dL (2×) and −1.7 mg/dL (3×) and −1.9 mg/dL and −0.9 mg/dL (2×) and −1.2 mg/dL (3×) and −1.0 mg/dL (2×) and −3.2 mg/dL and −3.5 mg/dL and −1.6 mg/dL
same,sUA Percent Change from baseline,[2]; [4],−17.50% and −14.86% and −30.43% and −27.85% and −16.42% and −26.98% and −22.09% and −13.64% and −9.47% and −26.15% and −16.00% and −14.29% (2×) and −10.87% and −30.14% and −14.46% and −35.56% and −47.95% and −20.51% and −19.72% and −15.38% and −21.79%
